Biological target: T1, α5β2γ2 subtype GABAAR (Homo sapiens, UniProt P18507+P31644)
T1 construct: expressed in transfected cells
T1 sequence (P31644 32-462): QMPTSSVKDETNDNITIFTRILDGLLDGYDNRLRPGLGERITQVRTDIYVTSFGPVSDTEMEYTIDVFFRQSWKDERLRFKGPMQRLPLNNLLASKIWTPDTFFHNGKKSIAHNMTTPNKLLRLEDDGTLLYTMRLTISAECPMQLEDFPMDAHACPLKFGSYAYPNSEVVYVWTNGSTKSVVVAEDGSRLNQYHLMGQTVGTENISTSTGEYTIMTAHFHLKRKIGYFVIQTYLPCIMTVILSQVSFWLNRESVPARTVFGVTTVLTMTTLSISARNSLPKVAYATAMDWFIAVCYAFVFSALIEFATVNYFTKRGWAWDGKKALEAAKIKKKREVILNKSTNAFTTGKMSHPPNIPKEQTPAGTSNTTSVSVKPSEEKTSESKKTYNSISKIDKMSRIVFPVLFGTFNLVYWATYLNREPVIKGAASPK
T1 sequence (P47870 25-512 partner limits assumed): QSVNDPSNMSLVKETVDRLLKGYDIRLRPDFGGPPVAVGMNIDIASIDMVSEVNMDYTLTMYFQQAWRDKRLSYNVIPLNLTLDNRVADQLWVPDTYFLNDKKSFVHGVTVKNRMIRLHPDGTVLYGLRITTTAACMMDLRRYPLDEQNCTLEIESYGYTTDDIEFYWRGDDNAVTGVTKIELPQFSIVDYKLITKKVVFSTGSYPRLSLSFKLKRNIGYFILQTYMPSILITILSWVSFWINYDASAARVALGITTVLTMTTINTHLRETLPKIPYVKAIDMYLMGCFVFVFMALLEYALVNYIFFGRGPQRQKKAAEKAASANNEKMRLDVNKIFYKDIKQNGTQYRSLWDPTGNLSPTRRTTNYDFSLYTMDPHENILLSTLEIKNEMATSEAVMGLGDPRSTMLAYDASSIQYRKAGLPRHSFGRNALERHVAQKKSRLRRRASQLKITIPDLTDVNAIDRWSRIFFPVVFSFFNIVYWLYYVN
T1 sequence (P18507 40-467 limits assumed): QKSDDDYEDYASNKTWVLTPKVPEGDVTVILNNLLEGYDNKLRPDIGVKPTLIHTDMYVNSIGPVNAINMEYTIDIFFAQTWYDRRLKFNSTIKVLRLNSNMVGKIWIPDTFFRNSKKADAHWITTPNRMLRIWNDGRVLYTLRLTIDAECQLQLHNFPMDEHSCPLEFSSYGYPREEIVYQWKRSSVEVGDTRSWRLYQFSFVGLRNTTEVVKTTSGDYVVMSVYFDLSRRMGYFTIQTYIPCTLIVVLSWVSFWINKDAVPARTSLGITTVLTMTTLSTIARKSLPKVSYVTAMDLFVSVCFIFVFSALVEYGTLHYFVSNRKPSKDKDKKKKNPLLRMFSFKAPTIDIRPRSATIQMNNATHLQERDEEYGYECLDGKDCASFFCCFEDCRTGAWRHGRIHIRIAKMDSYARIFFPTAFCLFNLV
Assay: Positive allosteric modulator activity: potentiation of EC20 GABA current in oocytes
Assay type: cell-based
Conditions: read-out: GABA α5 Functional Data (potentiation), @ 100 nM, reported as ranges
Description: (B) Positive Allosteric Modulator Activity of Test Compounds on α5β2γ2 Subtype GABAAR
On day 1, 1 ng/32 nL of GABAA α5β2γ2 cDNA was injected into one oocyte. Test starts on day 2. The cDNA injected to the oocytes was a mix of alpha, beta and gamma, their ratio is 1:1:10 (by weight) and the total weight of the mixed 3 subunits to be injected in one oocyte was 1 ng in 32 nl volume. The injected oocytes can also be tested on day 3. In such case, the cDNA amount injected to the oocytes should be reduced by 20%.
Compounds of the present invention were tested using the following procedures.
• 1). 8 oocytes were placed in 8 chambers of OpusXpress and superfused with Modified Barth's Saline (MBS) at 3 mL/min. Glass electrodes back-filled with 3M KCl (0.5-3 megaohms) were used.
Control test (Diazepam or methyl 3,5-diphenylpyridazine-4-carboxylate) • 1). New oocytes was used to run new test. • 2). […] Oocytes were washed with MBS for 5-10 min. • 4). […] Itest was divided by IGABA to obtain potentiation (%). Test Compounds at Multiple Doses • 1). Repeat the above steps 1), 2) and 3) in the control test. • 2). […] Divide Itest by IGABA to obtain potentiation (%). • 3). Discard all tested oocytes, new oocytes were used and the above steps 1) and 2) were repeated to test second concentration of the same compound. Each oocyte was used for only one concentration test for a single test compound. The steps were repeated for other test compounds.

SMILES | activation at 0.1 µM
CCOC(=O)c1ncn2c1Cc1c(C)nnn1-c1cc(OC)ccc1-2 [Compound 1] | 20 to 50%
CCOC(=O)c1ncn2c1Cc1c(C)nnn1-c1cc(F)ccc1-2 [Compound 2] | 20 to 50%
CCOC(=O)c1ncn2c1Cc1c(COc3ccccc3)nnn1-c1cc(OC)ccc1-2 [Compound 9] | 20 to 50%
CCOC(=O)c1ncn2c1Cc1c(COc3ccc(F)cc3)nnn1-c1cc(OC)ccc1-2 [Compound 10] | 5 to 20%
CCOC(=O)c1ncn2c1Cc1c(COc3cccc(OC)c3)nnn1-c1cc(OC)ccc1-2 [Compound 11] | 20 to 50%
CCOC(=O)c1ncn2c1Cc1c(Cc3ccc(Cl)cc3)nnn1-c1cc(F)ccc1-2 [Compound 45] | 20 to 50%
CCOC(=O)c1ncn2c1Cc1c(CN3CCCC3)nnn1-c1cc(OC)ccc1-2 [Compound 48] | 20 to 50%
CCOC(=O)c1ncn2c1Cc1c(CN(CC)CC)nnn1-c1cc(OC)ccc1-2 [Compound 50] | 5 to 20%
CCOC(=O)c1ncn2c1Cc1c(CN(C)Cc3ccccc3)nnn1-c1cc(OC)ccc1-2 [Compound 51] | 5 to 20%
CCOC(=O)c1ncn2c1Cn1c(COc3ccccc3)nnc1-c1cc(OC)ccc1-2 [Compound 55] | 20 to 50%
CCOC(=O)c1ncn2c1Cn1c(Oc3ccccc3)nnc1-c1cc(OC)ccc1-2 [Compound 104] | 5 to 20%
Cc1noc(-c2ncn3c2Cc2c(Cc4ccccc4)nnn2-c2cc(F)ccc2-3)n1 [Compound 109] | 20 to 50%
Cc1noc(-c2ncn3c2Cc2c(C)nnn2-c2cc(F)ccc2-3)n1 [Compound 110] | 20 to 50%
CCOC(=O)c1ncn2c1Cc1c(Cc3cccnc3)nnn1-c1cc(C)ccc1-2 [Compound 111] | 20 to 50%
Cc1nnn2c1Cc1c(C(=O)OC(C)C)ncn1-c1ccc(F)cc1-2 [Compound 112] | 5 to 20%
Cc1nnn2c1Cc1c(C(=O)OCC(C)(C)C)ncn1-c1ccc(F)cc1-2 [Compound 113] | > 50%
Cc1nnn2c1Cc1c(C(=O)OCC(F)(F)F)ncn1-c1ccc(F)cc1-2 [Compound 114] | > 50%
COc1ccc2c(c1)-c1nnc(COc3ccccc3)n1Cc1c(C(=O)OC(C)C)ncn1-2 [Compound 120] | 20 to 50%
Cc1ncn2c1Cc1c(C)nnn1-c1ccccc1-2 [Compound 121] | 5 to 20%
COc1ccc2c(c1)-c1nnc(COc3ccccc3)n1Cc1c(C#N)ncn1-2 [Compound 122] | 5 to 20%
Cc1noc(-c2ncn3c2Cc2c(C)nnn2-c2ccccc2-3)n1 [Compound 126] | 20 to 50%
Cc1nc(-c2ncn3c2Cc2c(C)nnn2-c2ccccc2-3)no1 [Compound 127] | 20 to 50%
COCc1nnc2n1Cc1c(-c3nc(C)no3)ncn1-c1ccc(OC)cc1-2 [Compound 128] | 20 to 50%
COCc1nnc2n1Cc1c(-c3nc(C(C)C)no3)ncn1-c1ccc(OC)cc1-2 [Compound 130] | 20 to 50%
Cc1nnn2c1Cc1c(-c3nc(C(C)C)no3)ncn1-c1ccccc1-2 [Compound 132] | 20 to 50%
Cc1nnn2c1Cc1c(-c3noc(C(C)C)n3)ncn1-c1ccccc1-2 [Compound 133] | 5 to 20%
CCOC(=O)c1ncn2c1Cn1c(COc3ccccc3)nnc1-c1cc(F)ccc1-2 [Compound 137] | 20 to 50%
Cc1nc(-c2ncn3c2Cc2c(C)nnn2-c2cc(F)ccc2-3)no1 [Compound 145] | > 50%

SMILES | activation at 0.1 µM
CC(C)c1nc(-c2ncn3c2Cn2c(COc4ccccc4)nnc2-c2cc(F)ccc2-3)no1 [Compound 147] | 20 to 50%
Cc1nc(-c2ncn3c2Cn2c(COc4ccccc4)nnc2-c2cc(F)ccc2-3)no1 [Compound 148] | 20 to 50%
Cc1nnn2c1Cc1c(-c3noc(C(C)C)n3)ncn1-c1ccc(F)cc1-2 [Compound 149] | > 50%
Cc1nnn2c1Cc1c(C(=O)OC(C)C)ncn1-c1ccccc1-2 [Compound 153] | 20 to 50%
CCc1nc(-c2ncn3c2Cc2c(C)nnn2-c2cc(F)ccc2-3)no1 [Compound 155] | 20 to 50%
CCc1nc(-c2ncn3c2Cn2c(COc4ccccc4)nnc2-c2cc(F)ccc2-3)no1 [Compound 158] | 20 to 50%
Cc1nnn2c1Cc1c(-c3noc(C(C)(C)C)n3)ncn1-c1ccc(F)cc1-2 [Compound 160] | > 50%
COc1ccc2c(c1)-c1nnc(COc3ccccc3)n1Cc1c(-c3noc(C)n3)ncn1-2 [Compound 162] | 20 to 50%
COc1ccc2c(c1)-c1nnc(COc3ccc(F)cc3)n1Cc1c(-c3noc(C)n3)ncn1-2 [Compound 163] | 20 to 50%
COCc1nnc2n1Cc1c(-c3noc(C)n3)ncn1-c1ccc(OC)cc1-2 [Compound 164] | 5 to 20%
COc1ccc2c(c1)-c1nnc(COCc3ccccc3)n1Cc1c(C#N)ncn1-2 [Compound 166] | 5 to 20%
COc1ccc2c(c1)-n1nnc(COc3cccc(F)c3)c1Cc1c(-c3noc(C)n3)ncn1-2 [Compound 168] | 5 to 20%
COc1ccc2c(c1)-c1nnc(COc3ccccc3)n1Cc1c(-c3noc(C(C)C)n3)ncn1-2 [Compound 171] | > 50%
COc1ccc2c(c1)-c1nnc(COc3ccc(F)cc3)n1Cc1c(-c3noc(C(C)C)n3)ncn1-2 [Compound 172] | > 50%
CCOCc1nnc2n1Cc1c(-c3noc(C(C)C)n3)ncn1-c1ccc(OC)cc1-2 [Compound 173] | > 50%
COc1ccc2c(c1)-c1nnc(COc3cccnc3)n1Cc1c(-c3noc(C(C)C)n3)ncn1-2 [Compound 176] | > 50%
COc1ccc2c(c1)-c1nnc(COc3cccc4ccccc34)n1Cc1c(-c3noc(C(C)C)n3)ncn1-2 [Compound 177] | > 50%
COc1ccc2c(c1)-c1nnc(COC3CCCC3)n1Cc1c(-c3noc(C(C)C)n3)ncn1-2 [Compound 178] | > 50%
COc1ccc2c(c1)-c1nnc(COc3cccc(F)c3)n1Cc1c(-c3noc(C(C)C)n3)ncn1-2 [Compound 179] | > 50%
COc1ccc2c(c1)-n1nnc(COc3ccc(F)cc3)c1Cc1c(-c3noc(C)n3)ncn1-2 [Compound 180] | 20 to 50%
COc1ccc2c(c1)-n1nnc(COc3ccccc3F)c1Cc1c(-c3noc(C)n3)ncn1-2 [Compound 181] | 20 to 50%
COc1ccc2c(c1)-n1nnc(COc3ccccc3)c1Cc1c(-c3noc(C)n3)ncn1-2 [Compound 182] | 20 to 50%
COc1ccc2c(c1)-c1nnc(COCc3cccc(F)c3)n1Cc1c(-c3noc(C(C)C)n3)ncn1-2 [Compound 183] | 20 to 50%
COc1ccc2c(c1)-c1nnc(COCc3ccccc3F)n1Cc1c(-c3noc(C(C)C)n3)ncn1-2 [Compound 184] | 20 to 50%
CC(C)c1nc(-c2ncn3c2Cn2c(COc4cccnc4)nnc2-c2cc(F)ccc2-3)no1 [Compound 185] | > 50%
COCc1nnc2n1Cc1c(-c3noc(C(C)C)n3)ncn1-c1ccc(F)cc1-2 [Compound 186] | > 50%
CCOCc1nnc2n1Cc1c(-c3noc(C(C)C)n3)ncn1-c1ccc(F)cc1-2 [Compound 187] | 20 to 50%

From patent US12528819B2 (priority 2016, dated 2026)
